Calls of active or inactive are those of the source. The calls are words filed in the database; no cut-off is given here.
Tests used:
NCI-H460 [1] = assay: Cell cycle arrest in human NCI-H460 cells assessed as accumulation of cells in S phase at 5 uM measured after 72 hrs by propidium iodide/RNase staining based flow cytometry analysis (Rvb= 26.87%); format: functional
NCI-H460 [2] = assay: Induction of ROS production in human NCI-H460 cells at 20 uM incubated for 24 hrs by CM-H2DCFDA probe based flow cytometry analysis; format: functional, cell-based
NCI-H460 [3] = assay: Inhibition of colony formation in human NCI-H460 cells assessed as reduction in colony formation incubated for 15 days and subsequent media replacement with compound for every 72 hrs by crystal violet staining based assay; format: functional, cell-based; details: dose 5-20 µM, time 15.0 day
NCI-H460 [4] = assay: Induction of apoptosis in human NCI-H460 cells assessed as late apoptotic cells at 5 uM measured after 72 hrs by Annexin V-FITC and propidium iodide staining based flow cytometry analysis (Rvb= 6.93%); format: functional
NCI-H460 [5] = assay: Induction of apoptosis in human NCI-H460 cells assessed as early apoptotic cells at 5 uM measured after 72 hrs by Annexin V-FITC and propidium iodide staining based flow cytometry analysis (Rvb= 6.61%); format: functional
[6] = target: MAP kinase p38 (Homo sapiens) (UniProt O15264+Q15759+Q16539+P53778); assay: Inhibition of p38 MAPK phosphorylation in human NCI-H460 cells at 20 uM measured after 72 hrs by western blot analysis; format: cell-based
NCI-H460 [7] = assay: Induction of apoptosis in human NCI-H460 cells assessed as decrease in pro-PARP expression level at 1 to 20 uM measured after 72 hrs by western blot analysis; format: functional, cell-based; details: dose 1-20 µM
NCI-H460 [8] = assay: Inhibition of ERK phosphorylation in human NCI-H460 cells at 20 uM measured after 72 hrs by western blot analysis; format: cell-based
NCI-H460 [9] = assay: Inhibition of cell proliferation in human NCI-H460 cells assessed as reduction in PCNA expression measured after 72 hrs by western blot analysis; format: functional, cell-based; details: dose 1-20 µM
NCI-H460 [10] = assay: Antimigratory activity against human NCI-H460 cells assessed as reduction in vimentin expression level at 1 to 20 uM measured after 72 hrs by western blot analysis; format: functional, cell-based; details: dose 1-20 µM
NCI-H460 [11] = assay: Induction of apoptosis in human NCI-H460 cells assessed as late apoptotic cells at 10 uM measured after 72 hrs by Annexin V-FITC and propidium iodide staining based flow cytometry analysis (Rvb= 6.93%); format: functional
NCI-H460 [12] = assay: Cell cycle arrest in human NCI-H460 cells assessed as accumulation of cells in G2/M phase at 5 uM measured after 72 hrs by propidium iodide/RNase staining based flow cytometry analysis (Rvb= 10.22%); format: functional
NCI-H460 [13] = assay: Effect on total ERK expression in human NCI-H460 cells at 1 to 20 uM measured after 72 hrs by western blot analysis; format: functional, cell-based; details: dose 1-20 µM
NCI-H460 [14] = assay: Cell cycle arrest in human NCI-H460 cells assessed as accumulation of cells in S phase at 10 uM measured after 72 hrs by propidium iodide/RNase staining based flow cytometry analysis (Rvb= 26.87%); format: functional
NCI-H460 [15] = assay: Antimigratory activity against human NCI-H460 cells assessed as inhibition of cell migration measured after 24 hrs by wound healing assay; format: functional, cell-based; details: dose 5-20 µM

COc1cc(CNC(=O)CCCC/C=C/C(C)C)ccc1OCc1nnc(Nc2ccc([N+](=O)[O-])cc2)o1
Activity (NCI-H460 [1]): 28.16%
Activity (NCI-H460 [2]): Active
inhibition (NCI-H460 [3]): Dose-dependent effect
Activity (NCI-H460 [4]): 8.07%
Activity (NCI-H460 [5]): 5.45%
inhibition [6]: Active
Activity (NCI-H460 [7]): Active
inhibition (NCI-H460 [8]): Active
inhibition (NCI-H460 [9]): Dose-dependent effect
Activity (NCI-H460 [10]): inactive
Activity (NCI-H460 [11]): 9.27%
Activity (NCI-H460 [12]): 10.03%
Activity (NCI-H460 [13]): inactive
Activity (NCI-H460 [14]): 29.05%
Activity (NCI-H460 [15]): Dose-dependent effect
